Measured values: ChEMBL document CHEMBL1150543, “Semisynthesis and biological evaluation of brevifoliol 13-[N-benzoyl-(-2R,3S)-3-phenylisoserinate]” (1993)
pEC50: −log10 of the molar value.

How the values were obtained:
B16 [1] = test: Effective dose against B16 melanoma cells in cytotoxicity assay; assay type: functional; conditions: Mus musculus, read-out: ED50 (the source's name)
B16 [2] = test: Effective dose against B16 melanoma cells in microtubule assembly assay; assay type: functional; conditions: Mus musculus, read-out: ED50 (the source's name)

pEC50 (B16 [2]): 6.00
Structure (SMILES): CC(=O)O[C@H]1C(=O)[C@@]2(C)[C@H]([C@H](OC(=O)c3ccccc3)[C@]3(O)C[C@H](OC(=O)[C@H](O)[C@@H](NC(=O)c4ccccc4)c4ccccc4)C(C)=C1C3(C)C)[C@]1(OC(C)=O)CO[C@@H]1C[C@@H]2O [PACLITAXEL]
pEC50 (B16 [1]): 7.57
